According to ChEMBL document CHEMBL1201862, “PubChem BioAssay data set” (2004):
Activity calls are given as the source filed them.

How the values were obtained:
[1] = biological target: T1, Apoptotic protease-activating factor 1 (Homo sapiens, UniProt O14727); format: functional
T1 sequence (O14727 whole entry): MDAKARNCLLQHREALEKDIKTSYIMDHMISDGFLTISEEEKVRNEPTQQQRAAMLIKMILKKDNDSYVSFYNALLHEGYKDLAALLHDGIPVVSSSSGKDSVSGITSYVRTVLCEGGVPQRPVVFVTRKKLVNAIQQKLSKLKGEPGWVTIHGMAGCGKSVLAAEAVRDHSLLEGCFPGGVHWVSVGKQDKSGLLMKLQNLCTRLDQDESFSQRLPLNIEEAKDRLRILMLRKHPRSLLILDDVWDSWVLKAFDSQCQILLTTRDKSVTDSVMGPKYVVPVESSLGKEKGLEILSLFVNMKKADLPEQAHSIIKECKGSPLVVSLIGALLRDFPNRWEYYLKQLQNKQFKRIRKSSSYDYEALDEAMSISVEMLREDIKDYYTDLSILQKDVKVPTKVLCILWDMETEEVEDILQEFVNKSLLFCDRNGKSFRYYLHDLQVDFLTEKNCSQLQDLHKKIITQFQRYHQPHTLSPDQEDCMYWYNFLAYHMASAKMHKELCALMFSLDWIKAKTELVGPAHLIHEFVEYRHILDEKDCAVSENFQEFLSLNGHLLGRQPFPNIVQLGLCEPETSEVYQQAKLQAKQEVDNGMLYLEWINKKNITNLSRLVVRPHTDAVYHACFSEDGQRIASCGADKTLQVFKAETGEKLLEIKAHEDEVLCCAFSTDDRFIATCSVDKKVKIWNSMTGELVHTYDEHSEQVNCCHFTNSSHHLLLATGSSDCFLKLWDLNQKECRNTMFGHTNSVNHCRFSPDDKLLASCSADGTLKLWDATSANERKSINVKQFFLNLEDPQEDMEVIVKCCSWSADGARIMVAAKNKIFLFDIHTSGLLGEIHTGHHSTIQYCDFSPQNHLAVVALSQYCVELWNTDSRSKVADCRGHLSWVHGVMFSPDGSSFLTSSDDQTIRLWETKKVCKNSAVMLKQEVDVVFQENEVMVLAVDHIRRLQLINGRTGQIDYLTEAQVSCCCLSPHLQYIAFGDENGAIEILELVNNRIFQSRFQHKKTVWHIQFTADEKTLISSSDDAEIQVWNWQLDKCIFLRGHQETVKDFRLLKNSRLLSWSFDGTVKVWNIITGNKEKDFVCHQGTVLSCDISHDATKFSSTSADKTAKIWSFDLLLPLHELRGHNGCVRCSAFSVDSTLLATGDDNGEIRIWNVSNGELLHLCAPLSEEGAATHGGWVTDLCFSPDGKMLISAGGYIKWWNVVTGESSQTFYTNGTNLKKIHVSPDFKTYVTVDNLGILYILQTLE

[2] = biological target: T2, Short transient receptor potential channel 4 (Mus musculus, UniProt Q9QUQ5); test: block of DAMGO-driven TRPC4 calcium entry – cell-based, HEK293 TRPC4/mu-opioid, Fluo-4 calcium, dose response (AID 434942); format: functional;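 note: potency of inhibitors blocking the TRPC4 calcium response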
T2 sequence (Q9QUQ5 whole entry): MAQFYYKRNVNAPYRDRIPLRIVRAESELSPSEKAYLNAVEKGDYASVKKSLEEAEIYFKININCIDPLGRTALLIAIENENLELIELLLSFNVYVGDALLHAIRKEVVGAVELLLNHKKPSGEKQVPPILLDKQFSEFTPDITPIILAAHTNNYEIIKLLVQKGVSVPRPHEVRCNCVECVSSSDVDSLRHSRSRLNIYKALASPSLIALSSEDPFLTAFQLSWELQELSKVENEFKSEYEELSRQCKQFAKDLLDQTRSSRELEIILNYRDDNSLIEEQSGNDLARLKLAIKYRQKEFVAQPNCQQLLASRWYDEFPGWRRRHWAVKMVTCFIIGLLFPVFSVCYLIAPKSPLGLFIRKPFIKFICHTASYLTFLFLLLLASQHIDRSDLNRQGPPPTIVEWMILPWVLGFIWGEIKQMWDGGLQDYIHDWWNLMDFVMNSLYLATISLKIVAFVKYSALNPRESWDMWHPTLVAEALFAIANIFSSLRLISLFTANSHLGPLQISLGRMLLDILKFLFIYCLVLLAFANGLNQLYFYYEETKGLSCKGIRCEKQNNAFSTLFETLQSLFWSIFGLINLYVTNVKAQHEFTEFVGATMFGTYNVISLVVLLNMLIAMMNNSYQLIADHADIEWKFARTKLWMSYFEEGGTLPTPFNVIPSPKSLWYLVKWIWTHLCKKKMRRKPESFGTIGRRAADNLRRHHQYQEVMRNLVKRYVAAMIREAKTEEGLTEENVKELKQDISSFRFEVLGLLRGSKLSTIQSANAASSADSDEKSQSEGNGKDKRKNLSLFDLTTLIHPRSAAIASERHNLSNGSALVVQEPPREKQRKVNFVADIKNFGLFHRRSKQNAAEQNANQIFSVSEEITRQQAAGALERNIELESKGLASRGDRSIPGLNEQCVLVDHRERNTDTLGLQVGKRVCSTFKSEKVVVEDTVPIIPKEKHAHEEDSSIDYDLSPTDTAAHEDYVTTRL

[3] = biological target: T2, Short transient receptor potential channel 4; test: calcium entry via TRPC4 opening agents – cell-based, HEK293 TRPC4/mu-opioid, Fluo-4 calcium, dose response (AID 434937); format: functional
[4] = cells; format: functional
[5] = biological target: Large T antigen (Simian virus 40, UniProt P03070); format: functional, Betapolyomavirus macacae;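 note: Confirmatory-stage PubChem screen for compounds that inhibit SV40 T antigen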
[6] = microbe, parasite or virus in culture; format: functional; conditions: Mycobacterium tuberculosis
[7] = biological target: T3, Streptokinase A (Streptococcus pyogenes serotype M1, UniProt P10520); test: viability-normalized secreted streptokinase activity reduction – plasminogen activation absorbance, OD405, dose response (AID 1914); format: functional, Streptococcus pyogenes M1 GAS;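 note: secreted streptokinase activity via plasminogen activation per viability signal from cell pellet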
T3 sequence (P10520 whole entry): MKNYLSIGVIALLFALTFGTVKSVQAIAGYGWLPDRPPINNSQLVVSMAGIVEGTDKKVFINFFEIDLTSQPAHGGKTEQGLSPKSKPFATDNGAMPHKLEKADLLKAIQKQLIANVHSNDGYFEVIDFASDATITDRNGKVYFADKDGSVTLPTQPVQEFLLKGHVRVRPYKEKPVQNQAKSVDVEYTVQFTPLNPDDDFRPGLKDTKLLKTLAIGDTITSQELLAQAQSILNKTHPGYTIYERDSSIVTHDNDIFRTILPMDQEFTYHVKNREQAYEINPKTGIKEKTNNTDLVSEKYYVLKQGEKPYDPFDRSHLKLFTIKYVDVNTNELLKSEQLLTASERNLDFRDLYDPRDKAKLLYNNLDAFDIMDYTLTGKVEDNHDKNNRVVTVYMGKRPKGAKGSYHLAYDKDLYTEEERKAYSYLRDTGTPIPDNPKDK

[8] = test system: Streptococcus; test: GAS UMAA2166 growth inhibition – luminescence, BacTiterGlo, counter-screen for streptokinase expression inhibitor project, dose response (AID 1915); format: functional, organism-based;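 note: potency for reduction of bacterial viability or growth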
[9] = test system: Streptococcus sp. 'group A'; test: Streptococcus pyogenes SK(-)GAS viability under kanamycin – luminescence, BacTiterGlo, confirmation, counter-screen for streptokinase expression inhibitor project, dose response (AID 1900); format: functional, organism-based
[10] = biological target: T4, Estrogen receptor (Homo sapiens, UniProt P03372);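 note: potency for inhibiting coactivator peptide recruitment to the receptor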
T4 sequence (P03372 whole entry): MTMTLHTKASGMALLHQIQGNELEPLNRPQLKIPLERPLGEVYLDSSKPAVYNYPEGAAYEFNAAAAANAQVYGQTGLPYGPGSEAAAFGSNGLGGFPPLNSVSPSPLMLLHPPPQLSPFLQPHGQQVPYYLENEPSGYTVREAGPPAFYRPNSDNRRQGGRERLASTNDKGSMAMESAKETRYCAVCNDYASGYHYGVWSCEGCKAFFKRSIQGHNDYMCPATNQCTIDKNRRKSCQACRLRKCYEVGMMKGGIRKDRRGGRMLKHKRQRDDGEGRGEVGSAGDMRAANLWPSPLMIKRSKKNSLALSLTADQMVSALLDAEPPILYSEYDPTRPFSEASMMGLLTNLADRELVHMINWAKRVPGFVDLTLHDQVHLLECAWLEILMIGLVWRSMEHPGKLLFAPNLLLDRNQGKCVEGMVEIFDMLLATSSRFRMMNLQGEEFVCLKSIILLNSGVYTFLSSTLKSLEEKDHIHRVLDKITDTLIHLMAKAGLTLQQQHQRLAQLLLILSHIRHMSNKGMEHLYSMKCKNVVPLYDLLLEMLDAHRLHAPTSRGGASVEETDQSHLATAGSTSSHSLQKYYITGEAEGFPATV

[11] = biological target: T5, Zinc finger protein mex-5 (Caenorhabditis elegans, UniProt Q9XUB2); test: potency of MEX-5 RNA-binding blockers – biochemical, C. elegans, fluorescence polarization, dose response (AID 1960)
T5 sequence (Q9XUB2 whole entry): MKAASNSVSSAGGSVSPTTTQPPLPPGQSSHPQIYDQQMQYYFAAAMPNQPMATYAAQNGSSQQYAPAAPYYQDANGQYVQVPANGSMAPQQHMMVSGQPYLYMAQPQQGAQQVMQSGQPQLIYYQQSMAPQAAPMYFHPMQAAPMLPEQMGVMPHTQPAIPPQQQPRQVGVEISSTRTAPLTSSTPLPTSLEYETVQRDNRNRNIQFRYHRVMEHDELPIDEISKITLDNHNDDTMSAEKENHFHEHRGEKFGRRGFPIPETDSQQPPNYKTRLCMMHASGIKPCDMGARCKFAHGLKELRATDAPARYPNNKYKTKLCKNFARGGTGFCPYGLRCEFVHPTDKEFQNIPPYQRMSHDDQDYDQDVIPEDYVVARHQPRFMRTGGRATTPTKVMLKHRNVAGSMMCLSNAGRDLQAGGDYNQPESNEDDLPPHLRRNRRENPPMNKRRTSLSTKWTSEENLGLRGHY

[12] = cells; format: functional, cell-based
[13] = biological target: T6, RNA-binding protein pos-1 (Caenorhabditis elegans, UniProt G5EF15); test: disruptors of C. elegans POS-1 RNA interaction – biochemical, fluorescence polarization, dose response (AID 1964);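 note: purified POS-1 fused to maltose binding protein made in E. coli; potency of compounds blocking POS-1 binding to fluorescent RNA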
T6 sequence (G5EF15 whole entry): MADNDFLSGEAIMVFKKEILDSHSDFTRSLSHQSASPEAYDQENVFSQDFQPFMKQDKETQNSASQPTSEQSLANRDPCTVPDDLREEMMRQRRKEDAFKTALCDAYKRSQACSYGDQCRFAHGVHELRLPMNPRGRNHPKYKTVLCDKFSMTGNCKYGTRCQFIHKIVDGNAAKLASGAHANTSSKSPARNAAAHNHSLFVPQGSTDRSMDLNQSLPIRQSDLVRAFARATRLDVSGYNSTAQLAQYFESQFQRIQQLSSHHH

[14] = cells; format: functional, cell-based; remark: listed apart in the source
[15] = blockers of HIV-1 envelope-mediated cell-cell fusion – cherry-pick, dose response (AID 652057); format: functional, cell-based
[16] = toxicity to human hepatoma HepG2 cells – cell-based, cherry-picked samples, cytotoxicity control, dose response (AID 1159577); format: functional
[17] = P. falciparum Dd2 growth inhibitors, dose response, SYBR Green, cherry-picked samples (AID 1159567); format: functional, cell-based

Sequence of Large T antigen (P03070 whole entry): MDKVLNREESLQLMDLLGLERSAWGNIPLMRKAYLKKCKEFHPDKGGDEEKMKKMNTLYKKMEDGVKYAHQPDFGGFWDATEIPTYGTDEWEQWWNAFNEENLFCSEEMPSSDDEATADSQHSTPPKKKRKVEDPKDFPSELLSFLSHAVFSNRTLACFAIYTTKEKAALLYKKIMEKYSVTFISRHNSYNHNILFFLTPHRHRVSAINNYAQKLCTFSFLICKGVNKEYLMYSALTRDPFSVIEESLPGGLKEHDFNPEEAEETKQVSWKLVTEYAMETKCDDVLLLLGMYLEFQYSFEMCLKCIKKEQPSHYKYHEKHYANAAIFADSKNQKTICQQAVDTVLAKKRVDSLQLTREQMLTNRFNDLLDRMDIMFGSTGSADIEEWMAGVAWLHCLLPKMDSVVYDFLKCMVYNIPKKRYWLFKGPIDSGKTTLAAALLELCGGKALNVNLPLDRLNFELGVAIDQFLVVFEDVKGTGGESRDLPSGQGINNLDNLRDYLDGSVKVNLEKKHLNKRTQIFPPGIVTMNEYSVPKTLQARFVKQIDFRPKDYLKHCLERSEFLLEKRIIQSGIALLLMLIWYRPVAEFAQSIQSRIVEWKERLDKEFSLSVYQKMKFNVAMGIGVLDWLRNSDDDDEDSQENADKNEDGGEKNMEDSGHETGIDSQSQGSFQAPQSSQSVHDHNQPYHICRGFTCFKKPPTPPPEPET

Compound: C=C(C)Cc1c(C)c(C#N)c2nc3ccccc3n2c1O
- IC50 [1]: 38.6 µM (active)

Compound: N#Cc1c(N)sc2c1CCCCCC2
- EC50 [2]: 3.76 µM (active)

Compound: Cc1cccc(N(C(=O)c2snc(C(N)=O)c2N)C(C(=O)NCC2CCCO2)c2ccc3ncccc3c2)c1 (stereo not drawn)
- EC50 [2]: 7.5 µM (active)

Compound: CN1CCCC(OC(=O)c2cc(Cl)cc(Cl)c2)C1 (stereo not drawn)
- EC50 [3]: 0.188 µM (active)

Compound: O=C(COc1ccc(Br)cc1)Nc1ccc([N+](=O)[O-])cn1
- IC50 [4]: 26.3 µM (active)

Compound: CCOC(=O)c1c(NC(=O)C(C)Sc2nnc(C)c(O)n2)sc2c1CCCC2 (stereo not drawn)
- EC50 [2]: 0.237 µM (active)

Compound: O=C(COC(=O)CCc1c[nH]c2ccccc12)NCc1ccc(Cl)cc1
- IC50 [4]: 11.8 µM (active)

Compound: Cc1ccc(-c2nn(-c3cccc(F)c3)cc2CNCc2cccnc2)o1
- EC50 [3]: 2.66 µM (active)

Compound: CC(Nc1ccc(N2CCOCC2)cc1)C(=O)N1c2ccccc2CC1C (stereo not drawn)
- IC50 [5]: 21.1 µM (active)

Compound: CC1Cc2ccccc2N1C(=S)NC(=O)c1ccc(Cl)cc1Cl (stereo not drawn)
- CC50 [6]: 33 µM (active)
- EC50 [7]: > 150 µM (not active)
- EC50 [8]: 13.7 µM (active)
- EC50 [9]: 5.96 µM (active)

Compound: CC1(C)CC(NC(=O)c2cc(COc3cccc(C(F)(F)F)c3)on2)CCO1 (stereo not drawn)
- EC50 [2]: 1.88 µM (active)

Compound: O=C(COC(=O)c1ccccc1Oc1ccccc1)NCc1ccco1
- IC50 [10]: 17.9 µM (active)

Compound: COc1ccc(-c2nnc(-c3cc4c(ccc5ccccc54)oc3=O)o2)cc1
- EC50 [11]: > 300 µM (inconclusive)
- EC50 [12]: > 350 µM (not active)
- IC50 [10]: 20 µM (active)
- EC50 [13]: > 300 µM (not active)
- EC50 [14]: > 350 µM (not active)

Compound: COc1cc(Cl)ccc1NC(=O)COc1ccccc1C(=O)N1CCN(c2ccc(O)cc2)CC1
- IC50 [5]: 13.4 µM (active)

Compound: CN1CCC(=O)N([C@H](CSc2ccc(Br)cc2)Cc2ccccc2)CC1
- EC50 [3]: 4.73 µM (active)

Compound: COc1ccc(OC)c(N2Cc3ccccc3C2=N)c1
- EC50 [2]: 3.35 µM (active)

Compound: CN(C)C(CN=C(S)Nc1ccc(Cl)cc1)c1cccnc1 (stereo not drawn)
- EC50 [3]: 0.0147 µM (active)

Compound: O=C1NCC(O)=C1/C=N/c1ccccc1O
- CC50 [6]: > 40 µM (active)
- IC50 [4]: 4.46 µM (active)

Compound: C[C@H]1CN([C@@H](C)CO)C(=O)Cc2cc(NS(=O)(=O)c3ccccc3)ccc2O[C@@H]1CN(C)Cc1ccc(Cl)c(Cl)c1
- AC50 [15]: 37.1 µM (active)

Compound: Cc1ccc(S(=O)(=O)N(C)C[C@H]2Oc3cc(C4=CCCC4)ccc3S(=O)(=O)N([C@H](C)CO)C[C@H]2C)cc1
- AC50 [15]: 10.1 µM (active)

Compound: COCCNC(=O)c1c(N)n(/N=C/c2cccs2)c2nc3ccccc3nc12
- IC50 [10]: 11.2 µM (active)

Compound: CCOc1cc(/C=N\NC(=O)Cn2nnc3ccccc32)ccc1O
- IC50 [5]: 13.1 µM (active)

Compound: N#Cc1cccc(-c2ccc([C@@H]3[C@@H]4CN(C(=O)Nc5ccc(C(F)(F)F)cc5)C[C@H]3N4)cc2)c1
- AC50 [16]: 10.5 µM (active)
- AC50 [17]: 4.72 µM (active)

Compound: O=C(/C=C/c1ccc(O)c(O)c1)O[C@@H]1C[C@](O)(C(=O)O)C[C@@H](O)[C@H]1O [CHLOROGENIC ACID]
- IC50 [5]: 14.7 µM (active)
